Like-named read-outs stand apart in the source and are kept apart here.
Tests used:
Assay type in all cases: cell-based
K. pneumoniae = experiment: MIC broth microdilution (CLSI)
Method in brief: (§1)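 Organisms from overnight agar colonies were adjusted to 0.5 McFarland and tested in cation-adjusted Mueller-Hinton broth at a final 5×10^5 CFU/mL against 2-fold serial compound dilutions. Plates were incubated in ambient air at 35° C. for 18-24 hours; MIC was the lowest concentration preventing visible growth (OD 600 nm<0.05).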

P. mirabilis = experiment: MIC broth microdilution (CLSI); settings: Proteus mirabilis; strain APMI1048, MDR Clinical isolate (CDC CRE panel), CDC AR Bank 0159
Method in brief: as §1

S. aureus = experiment: MIC broth microdilution (CLSI); settings: for MIC: Staphylococcus aureus
Method in brief: as §1

S. enterica = experiment: MIC broth microdilution (CLSI); settings: Salmonella enterica, read-out: Activity (MIC)
Method in brief: as §1

E. cloacae = experiment: MIC broth microdilution (CLSI); settings: Enterobacter cloacae; strain AECL1089, MDR Clinical isolate (CDC CRE panel), CDC AR Bank 0154
Method in brief: as §1

C. freundii = experiment: MIC broth microdilution (CLSI); settings: Citrobacter freundii, read-out: Activity (MIC)
Method in brief: as §1

A. baumannii = experiment: MIC broth microdilution (CLSI); settings: Acinetobacter baumannii
Method in brief: as §1

P. aeruginosa [1] = experiment: MIC broth microdilution (CLSI); settings: Pseudomonas aeruginosa
Method in brief: as §1

E. coli = experiment: MIC broth microdilution (CLSI); settings: Escherichia coli
Method in brief: as §1

K. aerogenes = experiment: MIC broth microdilution (CLSI); settings: Klebsiella aerogenes; strain AEAE1042, MDR Clinical isolate (CDC CRE panel), CDC AR Bank 0161
Method in brief: as §1

[2] = tested on: Methicillin-sensitive S. aureus (MSSA); experiment: Antibacterial surveillance of clinical isolates (MIC50/90); settings: Staphylococcus aureus, MSSA, 20 isolates
Method in brief: (§2)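 CLSI broth microdilution in cation-adjusted Mueller-Hinton broth, final inoculum 5×10^5 CFU/mL, 2-fold compound dilutions, 35° C ambient air for 18-24 hours. MIC = lowest concentration preventing visible growth (OD 600 nm<0.05). SENTRY US/European isolates (1:1); MIC50/MIC90 = concentrations inhibiting ≥50%/≥90% of each set.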

[3] = tested on: A. baumannii-calcoaceticus; experiment: as above; settings: 100 isolates
Method in brief: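 Broth microdilution per CLSI; CAMHB; 5×10^5 CFU/mL; 2-fold dilutions; 35° C, 18-24 h, ambient air. MIC endpoint OD 600 nm<0.05. US/EU SENTRY panels; MIC50/MIC90 per set.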

P. aeruginosa [4] = experiment: as above; settings: Pseudomonas aeruginosa, 103 isolates
Method in brief: as §2

Enterobacterales = experiment: as above
Method in brief: (§3)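 Isolates were suspended to 5×10^5 CFU/mL final in cation-adjusted Mueller-Hinton broth containing 2-fold serial compound dilutions, then incubated 18-24 hours at 35° C in ambient air. The MIC was read as no visible growth (OD 600 nm<0.05), and MIC50/MIC90 were derived across each isolate set.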

[5] = tested on: Methicillin-resistant S. aureus (MRSA); experiment: as above; settings: Staphylococcus aureus, MRSA, 30 isolates
Method in brief: as §2

[6] = tested on: AG-resistant Enterobacterales; experiment: as above
Method in brief: as §3

NC[C@@H]1CC[C@@H](N)[C@@H](O[C@@H]2[C@@H](N)[C@H](O)[C@@H](NC(=O)[C@@H](O)[C@H](F)CN)[C@H](O)[C@H]2O[C@@H]2O[C@H](CO)[C@@H](O[C@H]3O[C@@H](CN)[C@@H](O)[C@H](O)[C@H]3N)[C@H]2O)O1 [Compound 1, (2R,3R)-4-amino-N-((1R,2S,3S,4R,5R,6S)-3-amino-5-(((2S,3R,4S,5R)-4-(((2R,3R,4R,5S,6S)-3-amino-6-(aminomethyl)-4,5-dihydroxytetrahydro-2H-pyran-2-yl)oxy)-3-hydroxy-5-(hydroxymethyl)tetrahydrofuran-2-yl)oxy)-4-(((2R,3R,6S)-3-amino-6-(aminomethyl)tetrahydro-2H-pyran-2-yl)oxy)-2,6-dihydroxycyclohexyl)-3-fluoro-2-hydroxybutanamide]
MIC (K. pneumoniae; Klebsiella pneumoniae, strain AKPN1246, MDR Clinical isolate (CDC CRE panel), CDC AR Bank 0139): < 16 µg/mL
Activity (MIC) (K. pneumoniae; strain AKPN1250, MDR Clinical isolate (CDC CRE panel), CDC AR Bank 0143): + (MIC threshold for positive activity (+) is ≤16 μg/mL)
Activity (MIC) (K. pneumoniae; strain AKPN1253, MDR Clinical isolate (CDC CRE panel), CDC AR Bank 0148): + (MIC threshold for positive activity (+) is ≤16 μg/mL)
Activity (MIC) (K. pneumoniae; strain AKPN1255, MDR Clinical isolate (CDC CRE panel), CDC AR Bank 0153): + (MIC threshold for positive activity (+) is ≤16 μg/mL)
MIC (P. mirabilis): < 16 µg/mL
MIC (S. aureus; ATCC29213, strain NSAU001, wild-type, QC, ATCC 29213): < 16 µg/mL
MIC (S. aureus; strain NSAU1004, MDR Clinical isolate): < 16 µg/mL
Activity (MIC) (S. aureus; strain NSAU1015, MDR Clinical isolate): + (MIC threshold for positive activity (+) is ≤16 μg/mL)
Activity (MIC) (S. aureus; strain NSAU1023, MDR Clinical isolate): + (MIC threshold for positive activity (+) is ≤16 μg/mL)
Activity (MIC) (S. aureus; strain NSAU1063, MDR Clinical isolate): + (MIC threshold for positive activity (+) is ≤16 μg/mL)
MIC (S. enterica): < 16 µg/mL
MIC (E. cloacae): < 16 µg/mL
MIC (C. freundii): < 16 µg/mL
MIC (A. baumannii; read-out: Activity (MIC), strain NABA0007, ΔadeJK efflux): < 16 µg/mL
MIC (A. baumannii; read-out: Activity (MIC), strain NABA1427, MDR Clinical isolate): < 16 µg/mL
MIC (A. baumannii; read-out: Activity (MIC), strain NABA1433, MDR Clinical isolate): < 16 µg/mL
MIC (A. baumannii; read-out: Activity (MIC), strain NABA1434, MDR Clinical isolate): < 16 µg/mL
MIC (A. baumannii; read-out: Activity (MIC), strain NABA1436, MDR Clinical isolate): < 16 µg/mL
MIC (A. baumannii; read-out: Activity (MIC), strain NABA1437, MDR Clinical isolate): < 16 µg/mL
MIC (A. baumannii; read-out: Activity (MIC), strain NABA1438, MDR Clinical isolate): < 16 µg/mL
MIC (A. baumannii; read-out: Activity (MIC), strain NABA1439, MDR Clinical isolate): < 16 µg/mL
MIC (A. baumannii; read-out: Activity (MIC), strain NABA1448, MDR Clinical isolate): < 16 µg/mL
MIC (A. baumannii; read-out: Activity (MIC), strain NABA1449, MDR Clinical isolate): < 16 µg/mL
MIC (A. baumannii; read-out: Activity (MIC), strain NABA1450, MDR Clinical isolate): < 16 µg/mL
MIC (A. baumannii; strain NABA0006, WT parent, read-out: Activity (MIC)): < 16 µg/mL
MIC (A. baumannii; strain NABA0020, AME negative strain, read-out: Activity (MIC)): < 16 µg/mL
MIC (P. aeruginosa [1]; read-out: Activity (MIC), strain NPAE0006, Efflux KO, Aph(3')-IIb): < 16 µg/mL
MIC (P. aeruginosa [1]; read-out: Activity (MIC), strain NPAE0010, MexXY over-expressed, Aph(3')-IIb): < 16 µg/mL
MIC (P. aeruginosa [1]; read-out: Activity (MIC), strain NPAE1288, MDR Clinical isolate): < 16 µg/mL
MIC (P. aeruginosa [1]; read-out: Activity (MIC), strain NPAE1293, MDR Clinical isolate): < 16 µg/mL
MIC (P. aeruginosa [1]; read-out: Activity (MIC), strain NPAE1299, MDR Clinical isolate): < 16 µg/mL
MIC (P. aeruginosa [1]; read-out: Activity (MIC), strain NPAE1302, MDR Clinical isolate): < 16 µg/mL
MIC (P. aeruginosa [1]; read-out: Activity (MIC), strain NPAE1303, MDR Clinical isolate): < 16 µg/mL
MIC (P. aeruginosa [1]; read-out: Activity (MIC), strain NPAE1308, MDR Clinical isolate): < 16 µg/mL
MIC (P. aeruginosa [1]; read-out: Activity (MIC), strain NPAE1310, MDR Clinical isolate): < 16 µg/mL
MIC (P. aeruginosa [1]; read-out: Activity (MIC), strain NPAE1313, MDR Clinical isolate): > 16 µg/mL
MIC (P. aeruginosa [1]; read-out: Activity (MIC), strain NPAE1316, MDR Clinical isolate): < 16 µg/mL
MIC (P. aeruginosa [1]; read-out: Activity (MIC), strain NPAE1323, MDR Clinical isolate): < 16 µg/mL
MIC (P. aeruginosa [1]; strain NPAE0001, WT Aph(3')-IIb, QC, read-out: Activity (MIC)): < 16 µg/mL
MIC (P. aeruginosa [1]; strain NPAE0002, WT Aph(3')-IIb, read-out: Activity (MIC)): < 16 µg/mL
MIC (P. aeruginosa [1]; strain NPAE0359, aph(3')-IIb KO (tetR), read-out: Activity (MIC)): < 16 µg/mL
MIC (E. coli; read-out: Activity (MIC), strain AECO1225, MDR Clinical isolate (CDC CRE panel), CDC AR Bank 0118): < 16 µg/mL
MIC (E. coli; read-out: Activity (MIC), strain AECO1226, MDR Clinical isolate (CDC CRE panel), CDC AR Bank 0119): < 16 µg/mL
MIC (E. coli; read-out: Activity (MIC), strain AECO1227, MDR Clinical isolate (CDC CRE panel), CDC AR Bank 0128): < 16 µg/mL
MIC (E. coli; read-out: Activity (MIC), strain NECO0003, ΔtolC): < 16 µg/mL
MIC (E. coli; read-out: Activity (MIC), strain NECO0245, ArmA): < 16 µg/mL
MIC (E. coli; strain NECO0001, WT QC, read-out: Activity (MIC)): < 16 µg/mL
MIC (E. coli; strain NECO0002, WT, read-out: Activity (MIC)): < 16 µg/mL
MIC (E. coli; strain NECO0243, empty vector, read-out: Activity (MIC)): < 16 µg/mL
MIC (E. coli; strain NECO0244, AAC(6')-Ib, read-out: Activity (MIC)): < 16 µg/mL
MIC (E. coli; strain NECO0289, APH(3')-Ia, read-out: Activity (MIC)): < 16 µg/mL
MIC (E. coli; strain NECO0302, AAC(3)-IIa, read-out: Activity (MIC)): < 16 µg/mL
MIC (E. coli; strain NECO0350, AAC(2')-I, read-out: Activity (MIC)): < 16 µg/mL
MIC (E. coli; strain NECO0359, ANT(4')-Ia, read-out: Activity (MIC)): < 16 µg/mL
MIC (K. aerogenes): < 16 µg/mL
MIC50 ([2]; read-out: MIC50): < 16 µg/mL
MIC90 ([2]; read-out: MIC90): < 16 µg/mL
MIC50 ([3]; read-out: MIC50): < 16 µg/mL
MIC90 ([3]; read-out: MIC90): < 16 µg/mL
MIC50 (P. aeruginosa [4]; read-out: MIC50): < 16 µg/mL
MIC90 (P. aeruginosa [4]; read-out: MIC90): < 16 µg/mL
MIC50 (Enterobacterales): < 16 µg/mL
MIC90 (Enterobacterales): < 16 µg/mL
MIC50 ([5]; read-out: MIC50): < 16 µg/mL
MIC90 ([5]; read-out: MIC90): < 16 µg/mL
MIC50 [6]: < 16 µg/mL
MIC90 [6]: < 16 µg/mL

Reference: patent US20250032524A1, “BROAD SPECTRUM AMINOGLYCOSIDES AND USES THEREOF” (REVAGENIX, INC., priority 2022, published 2025)
